Assay results from PMC5218480 (PLoS ONE, 2017).

Test system: MV-4-11 cells
Experiment: Gene expression microarray analysis (Affymetrix PrimeView) and GSEA
Format: cell-based, human
Set-up: RFU PODN (11730768_x_at) / Fold change /veh PODN (11730768_x_at) / RFU LINC00158 (11744669_a_at) / Fold change /veh LINC00158 (11744669_a_at) / RFU DUSP10 (11751237_a_at) / Fold change /veh DUSP10 (11751237_a_at) / RFU ID3 (11757404_x_at) / Fold change /veh ID3 (11757404_x_at) / RFU PLEKHG5 (11737974_s_at) / Fold change /veh PLEKHG5 (11737974_s_at) / RFU LRRC4B (11730491_at) / Fold change /veh LRRC4B (11730491_at) / RFU GIMAP4 (11747438_a_at) / Fold change /veh GIMAP4 (11747438_a_at) / RFU KRT8 (11758183_x_at) / Fold change /veh KRT8 (11758183_x_at) / RFU CNN1 (11734310_a_at) / Fold change /veh CNN1 (11734310_a_at) / RFU VPS37D (11726825_at) / Fold change /veh VPS37D (11726825_at) / RFU C10orf10 (11716522_x_at) / Fold change /veh C10orf10 (11716522_x_at) / RFU KIR2DL2 /// KIR2DL4 /// KIR2DL5A /// KIR2DL5B /// KIR2DS1 /// KIR2DS2 /// KIR2DS3 /// KIR2DS4 /// KIR3DL3 /// KIR3DL3 /// KIR3DS1 (11738374_at) / Fold change /veh KIR2DL2 /// KIR2DL4 /// KIR2DL5A /// KIR2DL5B /// KIR2DS1 /// KIR2DS2 /// KIR2DS3 /// KIR2DS4 /// KIR3DL3 /// KIR3DL3 /// KIR3DS1 (11738374_at) / RFU C1QL1 (11718748_at) / Fold change /veh C1QL1 (11718748_at) / RFU TMPRSS4 (11747572_a_at) / Fold change /veh TMPRSS4 (11747572_a_at) / RFU HAMP (11756126_x_at) / Fold change /veh HAMP (11756126_x_at) / RFU RNFT2 (11725882_a_at) / Fold change /veh RNFT2 (11725882_a_at) / RFU NR4A2 (11747474_a_at) / Fold change /veh NR4A2 (11747474_a_at) / RFU ABCC12 (11746883_a_at) / Fold change /veh ABCC12 (11746883_a_at) / RFU TMEM136 (11760407_x_at) / Fold change /veh TMEM136 (11760407_x_at) / RFU CLDN22 /// WWC2 (11732394_at) / Fold change /veh CLDN22 /// WWC2 (11732394_at) / RFU HLA-DPB1 (11760878_x_at) / Fold change /veh HLA-DPB1 (11760878_x_at) / RFU SPINT1 (11716480_a_at) / Fold change /veh SPINT1 (11716480_a_at) / RFU GAP43 (11754022_s_at) / Fold change /veh GAP43 (11754022_s_at) / RFU A4GNT (11735810_at) / Fold change /veh A4GNT (11735810_at) / RFU PRB3 (11715151_x_at) / Fold change /veh PRB3 (11715151_x_at) / RFU TUBB4B (11761932_at) / Fold change /veh TUBB4B (11761932_at) / RFU CAPN14 (11732068_a_at) / Fold change /veh CAPN14 (11732068_a_at) / RFU TMCC2 (11721928_a_at) / Fold change /veh TMCC2 (11721928_a_at) / RFU IRGQ (11745062_a_at) / Fold change /veh IRGQ (11745062_a_at) / RFU FAM174B (11720279_a_at) / Fold change /veh FAM174B (11720279_a_at) / RFU TMPRSS4 (11748680_a_at) / Fold change /veh TMPRSS4 (11748680_a_at) / RFU FAM212B (11763350_a_at) / Fold change /veh FAM212B (11763350_a_at) / RFU PLEKHG5 (11743358_a_at) / Fold change /veh PLEKHG5 (11743358_a_at) / RFU ZSCAN30 (11745921_a_at) / Fold change /veh ZSCAN30 (11745921_a_at) / RFU CMKLR1 (11741424_a_at) / Fold change /veh CMKLR1 (11741424_a_at) / RFU LOC101060620 /// MAPK8IP1 (11723275_at) / Fold change /veh LOC101060620 /// MAPK8IP1 (11723275_at) / RFU SPTSSB (11747773_x_at) / Fold change /veh SPTSSB (11747773_x_at) / RFU PRSS12 (11739890_at) / Fold change /veh PRSS12 (11739890_at) / RFU BIN1 (11741810_x_at) / Fold change /veh BIN1 (11741810_x_at) / RFU WNT11 (11732464_a_at) / Fold change /veh WNT11 (11732464_a_at) / RFU C10orf10 (11716521_a_at) / Fold change /veh C10orf10 (11716521_a_at) / RFU C5orf56 (11738089_at) / Fold change /veh C5orf56 (11738089_at) / RFU CYB561 (11721691_x_at) / Fold change /veh CYB561 (11721691_x_at) / RFU ANKRD19P (11752326_a_at) / Fold change /veh ANKRD19P (11752326_a_at) / RFU OR2T12 /// OR2T33 /// OR2T8 (11738714_s_at) / Fold change /veh OR2T12 /// OR2T33 /// OR2T8 (11738714_s_at) / RFU VCAN (11748164_a_at) / Fold change /veh VCAN (11748164_a_at) / RFU JSRP1 (11732532_at) / Fold change /veh JSRP1 (11732532_at) / RFU KRTAP10-11 (11738290_x_at) / Fold change /veh KRTAP10-11 (11738290_x_at) / RFU MYO3A (11730013_a_at) / Fold change /veh MYO3A (11730013_a_at) / RFU EBF3 (11725865_a_at) / Fold change /veh EBF3 (11725865_a_at) / RFU CAMK2N1 (11719241_x_at) / Fold change /veh CAMK2N1 (11719241_x_at) / RFU C5orf56 (11738088_a_at) / Fold change /veh C5orf56 (11738088_a_at) / RFU OLFML3 (11715873_a_at) / Fold change /veh OLFML3 (11715873_a_at) / RFU LOC100653217 /// NTM (11731650_a_at) / Fold change /veh LOC100653217 /// NTM (11731650_a_at) / RFU MAPK11 (11762145_a_at) / Fold change /veh MAPK11 (11762145_a_at) / RFU FIZ1 (11724087_x_at) / Fold change /veh FIZ1 (11724087_x_at) / RFU OASL (11726364_x_at) / Fold change /veh OASL (11726364_x_at) / RFU SOX15 (11748057_x_at) / Fold change /veh SOX15 (11748057_x_at) / RFU CD79A (11719716_a_at) / Fold change /veh CD79A (11719716_a_at) / RFU HIST1H1D (11736915_at) / Fold change /veh HIST1H1D (11736915_at) / RFU CASKIN2 (11723855_a_at) / Fold change /veh CASKIN2 (11723855_a_at) / RFU LOC730098 (11760151_x_at) / Fold change /veh LOC730098 (11760151_x_at) / RFU OR4N2 (11742367_at) / Fold change /veh OR4N2 (11742367_at) / RFU PRRT2 (11749266_a_at) / Fold change /veh PRRT2 (11749266_a_at) / RFU SNX32 (11753110_a_at) / Fold change /veh SNX32 (11753110_a_at) / RFU CDHR5 (11726645_a_at) / Fold change /veh CDHR5 (11726645_a_at) / RFU RCAN1 (11760418_a_at) / Fold change /veh RCAN1 (11760418_a_at) / RFU FAM167A (11723789_a_at) / Fold change /veh FAM167A (11723789_a_at) / RFU FAM26E (11764081_at) / Fold change /veh FAM26E (11764081_at) / RFU ISYNA1 (11749810_s_at) / Fold change /veh ISYNA1 (11749810_s_at) / RFU ACY1 (11761880_at) / Fold change /veh ACY1 (11761880_at) / RFU 11764098_at / Fold change /veh 11764098_at / RFU SAMD14 (11745864_x_at) / Fold change /veh SAMD14 (11745864_x_at) / RFU NPB (11741838_a_at) / Fold change /veh NPB (11741838_a_at) / RFU TMPRSS6 (11731388_a_at) / Fold change /veh TMPRSS6 (11731388_a_at) / RFU KRTAP10-2 (11738614_at) / Fold change /veh KRTAP10-2 (11738614_at) / RFU ARHGAP8 /// PRR5-ARHGAP8 (11727945_x_at) / Fold change /veh ARHGAP8 /// PRR5-ARHGAP8 (11727945_x_at) / RFU KRTAP5-7 /// NADSYN1 (11734609_at) / Fold change /veh KRTAP5-7 /// NADSYN1 (11734609_at) / RFU RASL12 (11751679_a_at) / Fold change /veh RASL12 (11751679_a_at) / RFU CDKN2B (11736163_a_at) / Fold change /veh CDKN2B (11736163_a_at) / RFU PRF1 (11729649_at) / Fold change /veh PRF1 (11729649_at) / RFU, ZNF638 /// ZNF638-IT1 / Fold change vs veh, ZNF638 /// ZNF638-IT1 / RFU, PANK3 / Fold change vs veh, PANK3 / RFU, SH3YL1 / Fold change vs veh, SH3YL1 / RFU, ZEB2 / Fold change vs veh, ZEB2 / RFU, NRIP1 / Fold change vs veh, NRIP1 / RFU, PTTG1IP / Fold change vs veh, PTTG1IP / RFU, CAPN2 / Fold change vs veh, CAPN2 / RFU, MED14 / Fold change vs veh, MED14 / RFU, SNORA58 / Fold change vs veh, SNORA58 / RFU, C1orf63 / Fold change vs veh, C1orf63 / RFU, LRRFIP1 / Fold change vs veh, LRRFIP1 / RFU, NDUFAF7 / Fold change vs veh, NDUFAF7 / RFU, SLC12A2 / Fold change vs veh, SLC12A2 / RFU, IBTK / Fold change vs veh, IBTK / RFU, ESF1 / Fold change vs veh, ESF1 / Fold change vs veh, TMEM50B / RFU, TAOK1 / Fold change vs veh, TAOK1 / RFU, ACBD3 / Fold change vs veh, ACBD3 / RFU, TMA16 / Fold change vs veh, TMA16 / RFU, RWDD3 / Fold change vs veh, RWDD3 / RFU, BCAT1 / Fold change vs veh, BCAT1 / RFU, EDEM3 / Fold change vs veh, EDEM3 / RFU, TMEM33 / Fold change vs veh, TMEM33 / RFU, WDR75 / Fold change vs veh, WDR75 / RFU, AHCTF1 / Fold change vs veh, AHCTF1 / RFU, TFRC / Fold change vs veh, TFRC / RFU, ZDHHC17 / Fold change vs veh, ZDHHC17 / RFU, NOM1 / Fold change vs veh, NOM1 / RFU, ARL8B / Fold change vs veh, ARL8B / RFU, ZBTB11 / Fold change vs veh, ZBTB11 / RFU, TAMM41 / Fold change vs veh, TAMM41 / RFU, KIAA1704 /// LOC100996395 / Fold change vs veh, KIAA1704 /// LOC100996395 / RFU, ING1 / Fold change vs veh, ING1 / RFU, TRMT61B / Fold change vs veh, TRMT61B / RFU, FUBP3 / Fold change vs veh, FUBP3 / RFU, TP53 / Fold change vs veh, TP53 / RFU, TNKS2 / Fold change vs veh, TNKS2 / RFU, ZFP14 / Fold change vs veh, ZFP14 / RFU, ACTR2 / Fold change vs veh, ACTR2 / RFU, PPP3R1 / Fold change vs veh, PPP3R1 / RFU, PIK3R1 / Fold change vs veh, PIK3R1 / RFU, HNRNPA1 / Fold change vs veh, HNRNPA1 / RFU, RNF170 / Fold change vs veh, RNF170 / RFU, ZNF28 / Fold change vs veh, ZNF28 / RFU, RNGTT / Fold change vs veh, RNGTT / RFU, OGT / Fold change vs veh, OGT / RFU, BRD1 / Fold change vs veh, BRD1 / RFU, MARS / Fold change vs veh, MARS / RFU, ZNF655 / Fold change vs veh, ZNF655 / RFU, FAHD1 / Fold change vs veh, FAHD1 / RFU, BDP1 / Fold change vs veh, BDP1 / RFU, LRRCC1 / Fold change vs veh, LRRCC1 / RFU, ARID1A / Fold change vs veh, ARID1A / RFU, ZNF146 / Fold change vs veh, ZNF146 / RFU, ZNF330 / Fold change vs veh, ZNF330 / RFU, GPN3 / Fold change vs veh, GPN3 / RFU, C9orf123 / Fold change vs veh, C9orf123 / RFU, N4BP2L2 / Fold change vs veh, N4BP2L2 / RFU, ARFIP1 / Fold change vs veh, ARFIP1 / RFU, FAM179B / Fold change vs veh, FAM179B / RFU, BCL10 / Fold change vs veh, BCL10 / RFU, UHRF1BP1L / Fold change vs veh, UHRF1BP1L / RFU, BET1 / Fold change vs veh, BET1 / RFU, CNOT2 / Fold change vs veh, CNOT2 / RFU, ZNF268 / Fold change vs veh, ZNF268 / Fold change vs veh, ZNF507 / RFU, DGCR2 / Fold change vs veh, DGCR2 / RFU, WDSUB1 / Fold change vs veh, WDSUB1 / Fold change vs veh, HSP90B1 /// MIR3652 / RFU, ADSS / Fold change vs veh, ADSS / RFU, GK / Fold change vs veh, GK / RFU, ZNF148 / Fold change vs veh, ZNF148 / RFU, TAF9 / Fold change vs veh, TAF9 / RFU, SLC1A5 / Fold change vs veh, SLC1A5 / RFU, SLMO2 / Fold change vs veh, SLMO2 / RFU, ABCC4 / Fold change vs veh, ABCC4 / RFU, LOC101060439 /// RAP1B / Fold change vs veh, LOC101060439 /// RAP1B / RFU, RFX7 / Fold change vs veh, RFX7 / RFU, GTPBP10 / Fold change vs veh, GTPBP10 / RFU, CNEP1R1 / Fold change vs veh, CNEP1R1 / RFU, BIVM-ERCC5 /// ERCC5 / Fold change vs veh, BIVM-ERCC5 /// ERCC5 / RFU, ILF3 / Fold change vs veh, ILF3 / RFU 11762660_at / Fold change /veh 11762660_at / RFU VCAN (11757783_s_at) / Fold change /veh VCAN (11757783_s_at) / RFU DDX43 (11728927_at) / Fold change /veh DDX43 (11728927_at) / RFU KRT8 (11758188_x_at) / Fold change /veh KRT8 (11758188_x_at) / RFU NKD1 (11759106_at) / Fold change /veh NKD1 (11759106_at) / RFU SRD5A1 (11742802_a_at) / Fold change /veh SRD5A1 (11742802_a_at) / RFU TPSAB1 /// TPSB2 (11721975_s_at) / Fold change /veh TPSAB1 /// TPSB2 (11721975_s_at) / RFU GSTM3 (11746129_a_at) / Fold change /veh GSTM3 (11746129_a_at) / RFU IL23R (11737362_x_at) / Fold change /veh IL23R (11737362_x_at) / RFU TMEM51 (11727254_a_at) / Fold change /veh TMEM51 (11727254_a_at) / RFU PIWIL2 (11732686_x_at) / Fold change /veh PIWIL2 (11732686_x_at) / RFU ORM1 (11744905_x_at) / Fold change /veh ORM1 (11744905_x_at) / RFU CCDC152 (11743942_at) / Fold change /veh CCDC152 (11743942_at) / RFU ECM1 (11717891_a_at) / Fold change /veh ECM1 (11717891_a_at) / RFU IL23R (11748794_a_at) / Fold change /veh IL23R (11748794_a_at) / RFU TNFAIP8L3 (11732012_x_at) / Fold change /veh TNFAIP8L3 (11732012_x_at) / RFU MBOAT4 (11741988_at) / Fold change /veh MBOAT4 (11741988_at) / RFU 11764193_at / Fold change /veh 11764193_at / RFU TMEM53 (11763286_at) / Fold change /veh TMEM53 (11763286_at) / RFU MAGEB2 (11727129_at) / Fold change /veh MAGEB2 (11727129_at) / RFU TMEM200A (11744735_a_at) / Fold change /veh TMEM200A (11744735_a_at) / RFU CCDC152 (11751479_a_at) / Fold change /veh CCDC152 (11751479_a_at) / RFU FAM211A (11726209_a_at) / Fold change /veh FAM211A (11726209_a_at) / RFU RGS16 (11746705_a_at) / Fold change /veh RGS16 (11746705_a_at) / RFU VCAN (11755009_s_at) / Fold change /veh VCAN (11755009_s_at) / RFU RHOB (11743442_s_at) / Fold change /veh RHOB (11743442_s_at) / RFU RGS16 (11720943_a_at) / Fold change /veh RGS16 (11720943_a_at) / RFU RGS16 (11720944_at) / Fold change /veh RGS16 (11720944_at) / RFU, VPS4B / Fold change vs veh, VPS4B / RFU, CREB1 / Fold change vs veh, CREB1 / RFU, DNAJC13 / Fold change vs veh, DNAJC13 / RFU, GNAQ / Fold change vs veh, GNAQ / RFU, CDK5R1 / Fold change vs veh, CDK5R1 / RFU, ZRANB3 / Fold change vs veh, ZRANB3 / RFU, CUL4A / Fold change vs veh, CUL4A / RFU, CCNY / Fold change vs veh, CCNY / RFU, UFL1 / Fold change vs veh, UFL1 / RFU, COG3 / Fold change vs veh, COG3 / RFU, DIAPH2 / Fold change vs veh, DIAPH2 / RFU, SKA2 / Fold change vs veh, SKA2 / RFU, AFF3 / Fold change vs veh, AFF3 / RFU, LMF1 / Fold change vs veh, LMF1 / RFU, IPO11 / Fold change vs veh, IPO11 / RFU, DFFB / Fold change vs veh, DFFB / RFU, FOXP1 / Fold change vs veh, FOXP1 / RFU, CARD8 / Fold change vs veh, CARD8 / RFU, STRN3 / Fold change vs veh, STRN3 / RFU, ADK / Fold change vs veh, ADK / RFU, RASSF2 / Fold change vs veh, RASSF2 / RFU, WIPF1 / Fold change vs veh, WIPF1 / RFU, LARP1B / Fold change vs veh, LARP1B / RFU, RASA1 / Fold change vs veh, RASA1 / RFU, RB1 / Fold change vs veh, RB1 / RFU, PPFIA1 / Fold change vs veh, PPFIA1 / RFU, MAT2A / Fold change vs veh, MAT2A / RFU, CCT5 / Fold change vs veh, CCT5 / RFU, WDR92 / Fold change vs veh, WDR92 / RFU, CUX1 / Fold change vs veh, CUX1 / RFU, TTC7A / Fold change vs veh, TTC7A / RFU, TMEM135 / Fold change vs veh, TMEM135 / RFU, DEPTOR / Fold change vs veh, DEPTOR / RFU, CPM / Fold change vs veh, CPM / RFU, DNAJB6 / Fold change vs veh, DNAJB6 / RFU, CACNA2D3 / Fold change vs veh, CACNA2D3 / RFU, DTX4 / Fold change vs veh, DTX4 / RFU, TFCP2 / Fold change vs veh, TFCP2 / RFU, GMCL1 /// GMCL1P1 / Fold change vs veh, GMCL1 /// GMCL1P1 / RFU, AEBP2 / Fold change vs veh, AEBP2 / RFU, SNHG1 /// SNORD22 /// SNORD25 /// SNORD26 /// SNORD27 /// SNORD28 /// SNORD29 /// SNORD31 / Fold change vs veh, SNHG1 /// SNORD22 /// SNORD25 /// SNORD26 /// SNORD27 /// SNORD28 /// SNORD29 /// SNORD31 / Fold change (Aza/veh), C12orf56 (ProbeSet 11735607_a_at) / Fold change (ACY-1035/veh), C12orf56 (ProbeSet 11735607_a_at) / Fold change (Aza/veh), FGFR1OP (ProbeSet 11751329_s_at) / Fold change (ACY-1035/veh), FGFR1OP (ProbeSet 11751329_s_at) / Fold change (Aza/veh), VPS36 (ProbeSet 11739960_a_at) / Fold change (ACY-1035/veh), VPS36 (ProbeSet 11739960_a_at) / RFU SYPL1 (11715823_x_at) / Fold change /veh SYPL1 (11715823_x_at) / RFU IGFBP7 (11715501_s_at) / Fold change /veh IGFBP7 (11715501_s_at) / RFU REEP3 (11722064_at) / Fold change /veh REEP3 (11722064_at) / RFU IGLL1 (11728026_x_at) / Fold change /veh IGLL1 (11728026_x_at): dose or concentration left out as unconfirmed
Conditions: MV-4-11 cells, 48 hours

With `Nc1ncn([C@@H]2O[C@H](CO)[C@@H](O)[C@H]2O)c(=O)n1` [azacitidine] as the molecule, how does the “RFU C10orf10 (11716521_a_at)” value read?
Its value is 42.51 RFU.
